Test results from publication PMC2745557 (FEBS letters, 2009).

Columns and labels:
[1] = target: T1, Bombyx AKHR (Bombyx mori, UniProt Q8T6U9); conditions: compared with AKH1; ref [12]; cited from earlier work
T1 sequence (Q8T6U9 1-405): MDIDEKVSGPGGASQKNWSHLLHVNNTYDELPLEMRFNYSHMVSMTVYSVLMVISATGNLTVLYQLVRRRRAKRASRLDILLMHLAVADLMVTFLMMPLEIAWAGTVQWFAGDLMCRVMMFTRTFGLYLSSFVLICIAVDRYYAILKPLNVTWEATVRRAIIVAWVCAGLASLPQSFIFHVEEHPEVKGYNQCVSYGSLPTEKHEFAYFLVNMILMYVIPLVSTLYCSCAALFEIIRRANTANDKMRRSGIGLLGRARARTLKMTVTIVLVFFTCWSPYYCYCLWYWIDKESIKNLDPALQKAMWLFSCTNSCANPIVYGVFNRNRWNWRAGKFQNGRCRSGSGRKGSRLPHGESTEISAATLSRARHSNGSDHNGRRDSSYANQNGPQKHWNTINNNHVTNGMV

[2] = target: T1, Bombyx AKHR; format: cell-based

Row | Substance | affinity of activation of Bombyx AKHR [1] | effect of toxin pre-treatment on cAMP generation [2]
1 | Heliothis zea hypertrehalosaemic hormone [Hez-HrTH] | higher affinity than that of AKH1 | 
2 | Pertussis toxin [PTX] |  | no effect on cAMP generation
3 | cholera toxin [CTX] |  | remarkable increase in the cellular levels of cAMP
